Values joined by “and” are separate entries in the source; they are usually repeats but may differ in a detail not shown here. Identical values can stand only once. “Also recorded” adds a separate entry of the source.
Experiments:
[1] = system: human skeletal myotubes; assay: Dex-induced atrophy of human donor skeletal myotubes, myotube diameter; type: cell-based; settings: 10 μM Dex and 12.5 μM BML-260 for 24 h
Excerpt: Figure 9 DUSP22 targeting downregulates atrogene expression in immobilized skeletal muscle and inhibits atrophy in human donor myotubes. (A) Effect of immobilization on skeletal muscle mass using the plastic EP tube method (n = 3). (B) qPCR analysis of DUSP22 expression in the TA muscle (IM = immobilized) (n = 3) (p = 0.018). (C) Plot of DUSP22 expression in relation to TA mass (n = 6). (D) Western blot analysis of DUSP22 expression (n = 3) (p = 0.1699). (E) TA mass (n = 9,7) (p = (Sham = <0.0001, BML-260 = 0.007)). […] Quantification of atrogin-1, MuRF-1, and DUSP22 levels relative to GAPDH are also shown. […]
Human skeletal myoblasts were purchased from Thermo-Fisher Scientific, USA, re-suspended in DM and seeded onto 12-well culture plates at a density of 4.8 × 10^4 cells/well. 72 h later, the differentiated myotubes were treated with 10 μM Dex for 24 h, stained with haematoxylin and eosin (H&E) using a kit (Merck, Germany) and myotube diameter measured by light microscopy analysis of DIC captured images (Olympus CKX41, Olympus Life Science, Japan) and the NIH imaging software Image J 64 (National Institutes of Health, MD, USA). At least 80 myotubes in 5 micrographs were measured in each experimental group.

[2] = system: 15-month-old C57BL/6J male mice; assay: Assessment of potential organ toxicity (liver, heart, kidney); type: in vivo, mouse; design: Kidney mass / Liver mass / heart mass / Kidney mass, Average / Liver mass, Average / heart mass, Average: unit not given here; settings: 5 mg/kg IP every 24 h for 6 weeks
Experimental: To assess the effect of BML-260 treatment on the liver, heart and kidney, 15-month-old C57BL/6J male mice were treated as follows: 1) Vehicle (DMSO in PBS pH 7.4 with 5% Tween 80) alone, 2) 5 mg/kg BML-260 (n = 4 per group). BML-260 was administered via IP delivery every 24 h for 6 weeks. The mice were then sacrificed and the liver, kidneys and heart were weighed and photographed.
A) Photographs of the kidneys, liver, and heart after 6 weeks treatment with 5 mg/kg in 15 month-old mice. (n=4) B) Kidney(p=0.4403), liver(0.5545), and heart(0.5349) mass. ns=not statistically significant. n represents biological replicates analyzed by Student’s t test. Error bars represent the standard error of the mean (SEM).
(1 picture or pasted object on this page, not shown here)

[3] = system: DUSP22; design: method as in Cutshall et al, 2005; settings: ref Cutshall et al, 2005, cited from earlier work
[4] = system: VH1-related (VHR) phosphatase; design: method as in Cutshall et al, 2005; settings: ref Cutshall et al, 2005; cited from earlier work
[5] = design: method as in ref [9] Feng et al, 2019; settings: pH range 3 to 7.4, HPLC; ref [9] Feng et al, 2019; cited from earlier work

O=C(O)c1ccc(N2C(=O)C(=Cc3ccccc3)SC2=S)cc1 (stereo in doubt) [BML-260]
mean myotube diameter [1]: recovered the mean myotube diameter | kidney, liver and heart appearance and mass [2]: no major difference compared to vehicle-treated mice; also recorded: no gross significant change | Kidney mass ([2]; individual animals): 4.5487 and 5.186 and 4.22 and 4.517 | Liver mass ([2]; individual animals): 49.3264 and 63.6644 and 45.6088 and 64.8958 | heart mass ([2]; individual animals): 3.6875 and 4.058 and 4.981 and 4.532 | Kidney mass, Average ([2]; n = 4): 4.6181 | Liver mass, Average ([2]; n = 4): 55.8738 | heart mass, Average ([2]; n = 4): 4.315 | IC50 ([3]; EGF-R peptide P32-based assay): 18 µM | IC50 for DUSP22 (in words) [3]: low micromolar range | mode of DUSP22 inhibition [3]: competitive inhibitor | inhibitory effect against VHR phosphatase [4]: no inhibitory effect | stability at pH values within normal physiological conditions [5]: predicted to be stable
